Values of other authors in paper PMC4014123 (Acta Crystallographica Section D: Biological Crystallography, 2014).

System: I223R/H275Y dual mutation of neuraminidase from influenza A H1N1
Details: I223R/H275Y dual mutant vs wild type; ref van der Vries et al., 2012; cited from earlier work

For `CCOC(=O)C1=C[C@@H](OC(CC)CC)[C@H](NC(C)=O)[C@@H](N)C1` [oseltamivir], the “resistance towards oseltamivir relative to wild type” value is listed as “approximately 7500 times”.
